Laboratory results from patent US11001591B2, “TRAF 6 inhibitors” (HELMHOLTZ ZENTRUM MUENCHEN—DEUTSCHES FORSCHUNGSZENTRUM FÜR …, priority 2016, dated 2021).

Target: T1, TRAF6-UBC13 interaction (Homo sapiens, UniProt Q9Y4K3)
T1 construct: RING-Zincfinger1 (RZ1) domain (residues 50-159) of TRAF6 wildtype; made in house; host or cells: E. coli BL21 codon plus RIPL
T1 sequence (Q9Y4K3 50-159): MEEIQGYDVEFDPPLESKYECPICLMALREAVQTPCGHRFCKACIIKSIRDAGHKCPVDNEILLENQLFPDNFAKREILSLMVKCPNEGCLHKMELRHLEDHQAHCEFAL
Assay: ALPHAScreen TRAF6WTStrepII-Ubc13FH interaction assay
Format: binding
Details: inhibition of TRAF6-UBC13 interaction
From the text: In order to identify small molecules that specifically target the RZ1 domain of TRAF6 and thereby prevent its binding to Ubc13, the ALPHAScreen technology (PerkinElmer) was chosen to detect TRAF6WTStrepII-Ubc13FH interaction in High-Throughput-Screenings as well as Structure Activity Relationship (SAR) analysis.
For performance of an automated ALPHAScreen assay, all following components were pre-diluted in ALPHAScreen buffer (1×PBS, 0.5% BSA, 0.01% Tween-20). First, the TRAF6 protein (end concentration 100 nM, 30 μL volume) was added to 384-well-opti-plates involving the MultiFlo dispensing system (BioTek) followed by transfer of the compounds via the Sciclone G3 transfer station (PerkinElmer). After addition of Ubc13FH (end concentration 75 nM, 10 μL volume) with the MultiFlo system and incubation for one hour at room temperature, both beads (Strep-Tactin Alpha Donor beads and Nickel-Chelate acceptor beads; end concentrations 4 μg each, 10 μL volume each) were mixed and added using the MultiFlo system in subdued light. Read-out of the plates occurred after another hour of incubation at room temperature. Statistical parameters including the coefficient of variation, Z′ factor and signal window were calculated to determine the quality of the HTS campaign. To evaluate the efficacy of the compounds, ALPHAScreen units of compound-treated samples were referred to DMSO control treated samples. Thereby, the TRAF6D57K mutant served as the control for minimum signal and was included on every plate of the screening. Compounds that inhibited TRAF6WTStrepII-Ubc13FH by more than 25% were considered as actives. After elimination of ALPHAScreen frequent hitter compounds and His-tag frequent hitters (Schorpp, K., I. Rothenaigner, E. Salmina, et al., Identification of Small-Molecule Frequent Hitters from AlphaScreen High-Throughput Screens. J Biomol Screen, 2014. 19(5): p. 715-26), 178 compounds were defined as primary hits and were subsequently tested in five-point serial dilution assays (2.5-40 μM) in TRAF6WTStrepII-Ubc13FH ALPHAScreen experiments. Only compounds with dose-dependent effects on TRAF6WTStrepII-Ubc13FH (n=27) were taken for further research. For analog testing, all compounds were analyzed in ten-point titration (0.2-100 μM) in TRAF6WTStrepII-Ubc13FH ALPHAScreen experiments. In parallel, the compounds were tested in the ALPHAScreen TruHits Kit (PerkinElmer) to rule out unspecific interference with the ALPHAScreen technology.

Question: With `Cc1nn(-c2ccc3nnc(C)n3n2)c(C)c1CCC(=O)N1CCN(c2ccccc2)CC1` [Compound 1, 3-(3,5-dimethyl-1-(3-methyl-[1,2,4]triazolo[4,3-b]pyridazin-6-yl)-1H-pyrazol-4-yl)-1-(4-phenylpiperazin-1-yl)propan-1-one] as the compound, how does the IC50 read?
Answer: Its IC50 is ≤ 3 µM.

Question: With `Cc1nn(-c2ccc3nnc(C)n3n2)c(C)c1CCC(=O)N1CCN(c2ccccn2)CC1` [Compound 2, 3-(3,5-dimethyl-1-(3-methyl-[1,2,4]triazolo[4,3-b]pyridazin-6-yl)-1H-pyrazol-4-yl)-1-(4-(pyridin-2-yl)piperazin-1-yl)propan-1-one] as the compound, how does the IC50 read?
Answer: Its IC50 is ≤ 3 µM.

Question: With `Cc1nn(-c2ccc3nnc(C)n3n2)c(C)c1CCC(=O)N1CCN(c2ccc(F)cc2)CC1` [Compound 4, 3-(3,5-dimethyl-1-(3-methyl-[1,2,4]triazolo[4,3-b]pyridazin-6-yl)-1H-pyrazol-4-yl)-1-(4-(4-fluorophenyl)piperazin-1-yl)propan-1-one] as the compound, how does the IC50 read?
Answer: Its IC50 is ≤ 3 µM.

Question: With `Cc1nn(-c2ccc3nncn3n2)c(C)c1CCC(=O)N1CCN(c2ccc(F)cc2)CC1` [Compound 5, 3-(1-([1,2,4]triazolo[4,3-b]pyridazin-6-yl)-3,5-dimethyl-1H-pyrazol-4-yl)-1-(4-(4-fluorophenyl)piperazin-1-yl)propan-1-one] as the compound, how does the IC50 read?
Answer: The IC50 was ≤ 10 µM.

Question: How did the IC50 turn out when `Cc1nn(-c2ccc3nnc(C)n3n2)c(C)c1CCC(=O)N1CCCC1` [Compound 6, 3-(3,5-dimethyl-1-(3-methyl-[1,2,4]triazolo[4,3-b]pyridazin-6-yl)-1H-pyrazol-4-yl)-1-(pyrrolidin-1-yl)propan-1-one] was run?
Answer: Its IC50 is ≤ 10 µM.

Question: Which IC50 does the source give for `COc1ccc(N2CCN(C(=O)CCc3c(C)nn(-c4ccc5nnc(C)n5n4)c3C)CC2)cc1` [Compound 7, 3-(3,5-dimethyl-1-(3-methyl-[1,2,4]triazolo[4,3-b]pyridazin-6-yl)-1H-pyrazol-4-yl)-1-(4-(4-methoxyphenyl)piperazin-1-yl)propan-1-one] here?
Answer: Its IC50 is ≤ 10 µM.

Question: How did the IC50 turn out when `COc1cccc(N2CCN(C(=O)CCc3c(C)nn(-c4ccc5nncn5n4)c3C)CC2)c1` [Compound 8, 3-(1-([1,2,4]triazolo[4,3-b]pyridazin-6-yl)-3,5-dimethyl-1H-pyrazol-4-yl)-1-(4-(3-methoxyphenyl)piperazin-1-yl)propan-1-one] was run?
Answer: Its IC50 is ≤ 10 µM.

Question: For `COc1ccc(N2CCN(C(=O)CCc3c(C)nn(-c4ccc5nncn5n4)c3C)CC2)cc1` [Compound 9, 3-(1-([1,2,4]triazolo[4,3-b]pyridazin-6-yl)-3,5-dimethyl-1H-pyrazol-4-yl)-1-(4-(4-methoxyphenyl)piperazin-1-yl)propan-1-one], which IC50 is on record?
Answer: The IC50 was ≤ 10 µM.

Question: With `Cc1nn(-c2ccc3nncn3n2)c(C)c1CCC(=O)N1CCN(c2ccccc2)CC1` [Compound 10, 3-(1-([1,2,4]triazolo[4,3-b]pyridazin-6-yl)-3,5-dimethyl-1H-pyrazol-4-yl)-1-(4-phenylpiperazin-1-yl)propan-1-one] as the compound, how does the IC50 read?
Answer: Its IC50 is ≤ 10 µM.

Question: For `Cc1nn(-c2ccc3nnc(C)n3n2)c(C)c1CCC(=O)N1CCN(Cc2cccc(Cl)c2)CC1` [Compound 11, 1-(4-(3-chlorobenzyl)piperazin-1-yl)-3-(3,5-dimethyl-1-(3-methyl-[1,2,4]triazolo[4,3-b]pyridazin-6-yl)-1H-pyrazol-4-yl)propan-1-one], which IC50 is on record?
Answer: The IC50 was ≤ 10 µM.

Question: Which IC50 does the source give for `Cc1nn(-c2ccc3nncn3n2)c(C)c1CCC(=O)N1CCN(c2ccccn2)CC1` [Compound 12, 3-(1-([1,2,4]triazolo[4,3-b]pyridazin-6-yl)-3,5-dimethyl-1H-pyrazol-4-yl)-1-(4-(pyridin-2-yl)piperazin-1-yl)propan-1-one] here?
Answer: The IC50 was ≤ 10 µM.

Question: For `Cc1ccc(CNC(=O)CCc2c(C)nn(-c3ccc4nnc(C)n4n3)c2C)o1` [Compound 13, 3-(3,5-dimethyl-1-(3-methyl-[1,2,4]triazolo[4,3-b]pyridazin-6-yl)-1H-pyrazol-4-yl)-N-((5-methylfuran-2-yl)methyl)propanamide], which IC50 is on record?
Answer: The IC50 was ≤ 10 µM.

Question: For `Cc1nn(-c2ccc3nnc(C)n3n2)c(C)c1CCC(=O)N1CCN(c2ccccc2F)CC1` [Compound 14, 3-(3,5-dimethyl-1-(3-methyl-[1,2,4]triazolo[4,3-b]pyridazin-6-yl)-1H-pyrazol-4-yl)-1-(4-(2-fluorophenyl)piperazin-1-yl)propan-1-one], which IC50 is on record?
Answer: The IC50 was ≤ 30 µM.

Question: `Cc1nn(-c2ccc3nnc(C)n3n2)c(C)c1CCC(=O)NCCCc1ccccc1` [Compound 15, 3-(3,5-dimethyl-1-(3-methyl-[1,2,4]triazolo[4,3-b]pyridazin-6-yl)-1H-pyrazol-4-yl)-N-(3-phenylpropyl)propanamide] was tested. Which IC50 did it give?
Answer: The IC50 was ≤ 30 µM.

Question: How did the IC50 turn out when `Cc1nn(-c2ccc3nncn3n2)c(C)c1CCC(=O)N1CCC(Cc2ccccc2)CC1` [Compound 16, 3-(1-([1,2,4]triazolo[4,3-b]pyridazin-6-yl)-3,5-dimethyl-1H-pyrazol-4-yl)-1-(4-benzylpiperidin-1-yl)propan-1-one] was run?
Answer: The IC50 was ≤ 30 µM.

Question: Which IC50 does the source give for `Cc1ccc(C)c(N2CCN(C(=O)CCc3c(C)nn(-c4ccc5nnc(C)n5n4)c3C)CC2)c1` [Compound 17, 3-(3,5-dimethyl-1-(3-methyl-[1,2,4]triazolo[4,3-b]pyridazin-6-yl)-1H-pyrazol-4-yl)-1-(4-(2,5-dimethylphenyl)piperazin-1-yl)propan-1-one] here?
Answer: Its IC50 is ≤ 30 µM.

Question: With `Cc1nn(-c2ccc3nnc(C)n3n2)c(C)c1CCC(=O)NCc1ccc(Cl)cc1` [Compound 18, N-(4-chlorobenzyl)-3-(3,5-dimethyl-1-(3-methyl-[1,2,4]triazolo[4,3-b]pyridazin-6-yl)-1H-pyrazol-4-yl)propanamide] as the compound, how does the IC50 read?
Answer: The IC50 was ≤ 30 µM.

Question: With `Cc1nn(-c2ccc3nnc(C)n3n2)c(C)c1CCC(=O)NCc1cccs1` [Compound 19, 3-(3,5-dimethyl-1-(3-methyl-[1,2,4]triazolo[4,3-b]pyridazin-6-yl)-1H-pyrazol-4-yl)-N-(thiophen-2-ylmethyl)propanamide] as the compound, how does the IC50 read?
Answer: Its IC50 is ≤ 30 µM.

Question: With `Cc1nn(-c2ccc3nnc(C)n3n2)c(C)c1CCC(=O)NCCc1c[nH]c2ccccc12` [Compound 20, N-(2-(1H-indol-3-yl)ethyl)-3-(3,5-dimethyl-1-(3-methyl-[1,2,4]triazolo[4,3-b]pyridazin-6-yl)-1H-pyrazol-4-yl)propanamide] as the compound, how does the IC50 read?
Answer: Its IC50 is ≤ 30 µM.

Question: For `Cc1nn(-c2ccc3nnc(C)n3n2)c(C)c1CCC(=O)NCc1ccccc1` [Compound 21, N-benzyl-3-(3,5-dimethyl-1-(3-methyl-[1,2,4]triazolo[4,3-b]pyridazin-6-yl)-1H-pyrazol-4-yl)propanamide], which IC50 is on record?
Answer: Its IC50 is ≤ 30 µM.

Same assay, conditions: inhibition of TRAF6-UBC13 interaction; read-out: IC50 Alphascreen

Question: For `Cc1nn(-c2ccc3nncn3n2)c(C)c1CCC(=O)NCCCc1ccccc1` [Compound 22, 3-(1-([1,2,4]triazolo[4,3-b]pyridazin-6-yl)-3,5-dimethyl-1H-pyrazol-4-yl)-N-(3-phenylpropyl)propanamide], which inhibition at 100 µM is on record?
Answer: The inhibition at 100 µM was ≥ 30%.

Question: How did the inhibition at 100 µM turn out when `CCN1CCN(C(=O)CCc2c(C)nn(-c3ccc4nnc(C)n4n3)c2C)CC1` [Compound 23, 3-(3,5-dimethyl-1-(3-methyl-[1,2,4]triazolo[4,3-b]pyridazin-6-yl)-1H-pyrazol-4-yl)-1-(4-ethylpiperazin-1-yl)propan-1-one] was run?
Answer: Its inhibition at 100 µM is ≥ 30%.

Question: With `Cc1nn(-c2ccc3nncn3n2)c(C)c1CCC(=O)N1CCC(C)CC1` [Compound 24, 3-(1-([1,2,4]triazolo[4,3-b]pyridazin-6-yl)-3,5-dimethyl-1H-pyrazol-4-yl)-1-(4-methylpiperidin-1-yl)propan-1-one] as the compound, how does the inhibition at 100 µM read?
Answer: The inhibition at 100 µM was ≥ 30%.

Question: Which inhibition at 100 µM does the source give for `Cc1nn(-c2ccc3nncn3n2)c(C)c1CCC(=O)N1CCCC1` [Compound 25, 3-(1-([1,2,4]triazolo[4,3-b]pyridazin-6-yl)-3,5-dimethyl-1H-pyrazol-4-yl)-1-(pyrrolidin-1-yl)propan-1-one] here?
Answer: Its inhibition at 100 µM is ≥ 30%.
